Article PMC7587356, “High-Throughput Screening for Inhibitors of the SARS-CoV-2 Protease Using a FRET-Biosensor” (Molecules, 2020)
Structures can show the parent of a compound that is named as a salt. Where two headings read alike, the source gives them in different places.

Biological target: SARS-CoV-2 3CLpro (Severe acute respiratory syndrome coronavirus 2, UniProt P0DTD1)
Assay: biochemical
Assay type: biochemical
Design: Replicate_1 / Replicate_2 / mean / mean (LOPAC_screen_w_protease): unit not given here
Conditions: for mean (LOPAC screen with protease) / Replicate_1 (LOPAC screen with protease) / Replicate_2 (LOPAC screen with protease): primary screen at 5 µM; for inhibition at 5 µM: 4 h
[1] = sheet LOPAC_screen_w_protease, mean of two replicates
[2] = sheet LOPAC_screen_w_protease, replicate 1
[3] = sheet LOPAC_screen_w_protease, replicate 2
[4] = LOPAC1280 primary screen with protease, 5 µM compound, mean of two replicates
[5] = LOPAC1280 primary screen with protease, 5 µM compound, replicate 1
[6] = LOPAC1280 primary screen with protease, 5 µM compound, replicate 2
[7] = sheet LOPAC_screen_w_protease, primary screen with protease, 5 µM, mean of two replicates
[8] = sheet LOPAC_screen_w_protease, primary screen with protease, 5 µM, replicate 1
[9] = sheet LOPAC_screen_w_protease, primary screen with protease, 5 µM, replicate 2
[10] = LOPAC1280 primary screen with protease, 5 µM compound, replicate 1, read-out: Replicate_1 (LOPAC_screen_w_protease)
[11] = LOPAC1280 primary screen with protease, 5 µM compound, replicate 2, read-out: Replicate_2 (LOPAC_screen_w_protease)
[12] = LOPAC1280 primary screen with protease, 5 µM compound, mean of the two replicates

For `C[N+](C)(C)CCC(=O)c1cccc2ccccc12.[I-]`, the “mean (LOPAC screen with protease)” value [1] was 102.503, the “Replicate_1 (LOPAC screen with protease)” value [2] was 102.129 and the “Replicate_2 (LOPAC screen with protease)” value [3] was 102.878.
`N=C(N)NC(=O)c1nc(Cl)c(N)nc1N` [Amiloride hydrochloride] showed an inhibition at 5 µM (sheet LOPAC_screen_w_protease, primary screen with protease, 5 µM, mean of two replicates, read-out: mean) of 0.179%, an inhibition at 5 µM (sheet LOPAC_screen_w_protease, primary screen with protease, 5 µM, replicate 1, read-out: Replicate_1) of -0.488% and an inhibition at 5 µM (sheet LOPAC_screen_w_protease, primary screen with protease, 5 µM, replicate 2, read-out: Replicate_2) of 0.846%.
`CN1CCN(CC/C=C2/c3ccccc3Sc3ccc(S(=O)(=O)N(C)C)cc32)CC1.Cl` [Thiothixene hydrochloride] was tested, and the “mean (LOPAC_screen_w_protease)” value [4] was 1.56, the “Replicate_1 (LOPAC_screen_w_protease)” value [5] was 2.053 and the “Replicate_2 (LOPAC_screen_w_protease)” value [6] was 1.066.
With `O=C1NCC2(CCN(CCc3ccccc3)CC2)O1` [Fenspiride hydrochloride] the inhibition at 5 µM (sheet LOPAC_screen_w_protease, primary screen with protease, mean of two replicates, read-out: mean) was 2.48%, the inhibition at 5 µM (sheet LOPAC_screen_w_protease, primary screen with protease, replicate 1, read-out: Replicate_1) was 4.11% and the inhibition at 5 µM (sheet LOPAC_screen_w_protease, primary screen with protease, replicate 2, read-out: Replicate_2) was 0.843%.
Compound `COC(=O)C1=C(C)NC(C)=C(C(=O)OCCN(C)Cc2ccccc2)C1c1cccc([N+](=O)[O-])c1` (stereo not drawn) [Nicardipine hydrochloride] has an inhibition at 5 µM (sheet LOPAC_screen_w_protease, primary screen with protease, compound at 5 µM, mean of two replicates, read-out: mean) of 2.73%, an inhibition at 5 µM (sheet LOPAC_screen_w_protease, primary screen with protease, compound at 5 µM, replicate 1, read-out: Replicate_1) of 2.03% and an inhibition at 5 µM (sheet LOPAC_screen_w_protease, primary screen with protease, compound at 5 µM, replicate 2, read-out: Replicate_2) of 3.42%.
With `CN(C)c1ccc(/C=C2\C(=O)Nc3ccccc32)cc1` [SU 4312] the mean [7] was 0.09243, the Replicate_1 [8] was 0.4934 and the Replicate_2 [9] was -0.3085.
`C[C@@]12C(=O)OC(=O)[C@]1(C)[C@H]1CC[C@@H]2O1` [Cantharidin] showed an inhibition at 5 µM (read-out: Replicate_1) of 1.95%, an inhibition at 5 µM (read-out: Replicate_2) of 0.0268% and an inhibition at 5 µM (read-out: mean) of 0.988%.
In the case of `CN(C)C(=O)N=NC(=O)N(C)C` [N,N,N',N'-Tetramethylazodicarboxamide], the “mean (LOPAC screen with protease)” value [1] is reported as 22.0405, the “Replicate_1 (LOPAC screen with protease)” value [2] is reported as 23.2519 and the “Replicate_2 (LOPAC screen with protease)” value [3] is reported as 20.8292.
In the case of `OCCN1CCN(CCCN2c3ccccc3Sc3ccc(Cl)cc32)CC1` [Perphenazine], the inhibition at 5 µM (sheet LOPAC_screen_w_protease, LOPAC1280 at 5 µM, mean of two replicates, read-out: mean) is reported as 1.14%, the inhibition at 5 µM (sheet LOPAC_screen_w_protease, LOPAC1280 at 5 µM, replicate 1, read-out: Replicate_1) is reported as 0.377% and the inhibition at 5 µM (sheet LOPAC_screen_w_protease, LOPAC1280 at 5 µM, replicate 2, read-out: Replicate_2) is reported as 1.91%.
`Cl.O=c1[nH]oc2c1CCNC2` [THIP hydrochloride] gave a mean [7] of -0.005768, a Replicate_1 [8] of -0.552 and a Replicate_2 [9] of 0.5405.
`NC(=O)C(=O)O` [Sodium Oxamate] showed an inhibition at 5 µM (sheet LOPAC_screen_w_protease, LOPAC1280 primary screen with protease, 5 µM compound, mean of the two replicates, read-out: mean) of 4.58%, an inhibition at 5 µM (sheet LOPAC_screen_w_protease, LOPAC1280 primary screen with protease, 5 µM compound, replicate 1, read-out: Replicate_1) of 4.67% and an inhibition at 5 µM (sheet LOPAC_screen_w_protease, LOPAC1280 primary screen with protease, 5 µM compound, replicate 2, read-out: Replicate_2) of 4.48%.
With `Nc1ncnc2c1ncn2[C@@H]1O[C@H](COP(=O)(O)CP(=O)(O)OP(=O)([O-])[O-])[C@H](O)C1O.[Li+].[Li+]` (stereo partly drawn) the mean (sheet LOPAC_screen_w_protease, primary screen with protease, compound at 5 µM, mean of two replicates) was 2.729, the Replicate_1 (sheet LOPAC_screen_w_protease, primary screen with protease, compound at 5 µM, replicate 1) was 1.677 and the Replicate_2 (sheet LOPAC_screen_w_protease, primary screen with protease, compound at 5 µM, replicate 2) was 3.782.
For `NCCS(=O)O` [Hypotaurine], the inhibition at 5 µM [10] was 4.13%, the inhibition at 5 µM [11] was -0.407% and the “mean (LOPAC_screen_w_protease)” value [12] was 1.861.
Compound `O=C(O)/C=C1\CCCc2ccccc2C1O` (stereo not drawn) [NCS-382] has a mean (sheet LOPAC_screen_w_protease, LOPAC1280 primary screen with protease, 5 µM compound, mean of the two replicates) of 5.8931, a Replicate_1 (sheet LOPAC_screen_w_protease, LOPAC1280 primary screen with protease, 5 µM compound, replicate 1) of 5.187 and a Replicate_2 (sheet LOPAC_screen_w_protease, LOPAC1280 primary screen with protease, 5 µM compound, replicate 2) of 6.599.
With `CCNC(=O)[C@H]1O[C@@H](n2cnc3c(N)ncnc32)[C@H](O)[C@@H]1O` [5'-N-Ethylcarboxamidoadenosine] the “mean (LOPAC_screen_w_protease)” value [12] was 1.81, the “Replicate_1 (LOPAC_screen_w_protease)” value [5] was 1.565 and the “Replicate_2 (LOPAC_screen_w_protease)” value [6] was 2.055.
`CCN(CC)CCOCCOC(=O)C1(c2ccccc2)CCCC1` [Carbetapentane citrate] was tested, and the inhibition at 5 µM [10] was 2.35%, the inhibition at 5 µM [11] was 1.05% and the “mean (LOPAC_screen_w_protease)” value [4] was 1.698.
`CNCCC(Oc1ccc(C(F)(F)F)cc1)c1ccccc1` (stereo not drawn) [Fluoxetine hydrochloride] gave an inhibition at 5 µM (sheet LOPAC_screen_w_protease, LOPAC1280 primary screen at 5 µM, with protease, mean of the two replicates, read-out: mean) of 0.474%, an inhibition at 5 µM (sheet LOPAC_screen_w_protease, LOPAC1280 primary screen at 5 µM, with protease, replicate 1, read-out: Replicate_1) of 2.07% and an inhibition at 5 µM (sheet LOPAC_screen_w_protease, LOPAC1280 primary screen at 5 µM, with protease, replicate 2, read-out: Replicate_2) of -1.12%.
With `CCCCNc1cc(C(=O)O)cc(S(N)(=O)=O)c1Oc1ccccc1` [Bumetanide] the inhibition at 5 µM (read-out: Replicate_1) was -0.596%, the inhibition at 5 µM (read-out: Replicate_2) was 1.11% and the inhibition at 5 µM (read-out: mean) was 0.258%.
